Measured values from a melting point compilation (Tetko et al.).

Row | Structure (SMILES) | melting point [°C]
1 | C=CC1(OC(C)=O)CCC2(C)C(CCC3C2CCC2(C)C3CCC23OCCO3)C1 (centres undefined) | 101 to 109
2 | CCOC(=O)C(C)C(O)(c1ccccc1)c1ccccc1 (centres undefined) | 102
3 | N#Cc1ccc(N2CCCCC2)cc1 | 51 to 53
4 | N#Cc1ccccc1N=C=O | 61 to 62
5 | CC1=CCCC1C (centres undefined) | -118
6 | CCOC(=O)c1cc2cccnc2s1 | 59 to 60
7 | CC(NC(=O)CCCCNC(=O)C12CC3CC(CC(C3)C1)C2)[P+]([O-])(Oc1ccccc1)Oc1ccccc1 (centres undefined) | 150
8 | CN1CCN(CCCN2c3ccccc3Sc3ccc(C(F)(F)F)cc32)CC1 | 25
9 | COc1cc2c(c(OC)c1OC)C(=O)[C@]1(OC)C=C[C@H]2N(c2ccccc2)O1 | 114
10 | NC(=S)c1cccc(F)c1 | 110
11 | CC(=O)Nc1cccc(NCC(=O)c2ccccc2)c1 | 171
12 | O=C(NCCCBr)c1cc([N+](=O)[O-])cc([N+](=O)[O-])c1 | 195
13 | CNC(=O)Oc1cccc(C(C)C)c1 | 73
14 | CNc1ncnc(Cl)c1[N+](=O)[O-] | 134 to 139
15 | O=S(=O)(Cl)c1ccc(Br)c(Br)c1 | 34
16 | NC(=NO)c1ccc2ccccc2c1 | 150 to 151
17 | N#Cc1cc(F)ccc1Br | 90
18 | CCC(C)(CC)OC(N)=O | 56
19 | O=C1c2ccccc2-c2ccc([N+](=O)[O-])cc21 | 222 to 223
20 | COc1ccccc1C=N/N=c1/sc(C(C)=O)nn1-c1ccccc1[N+](=O)[O-] | 178
21 | CCOC(=O)NNC(=O)OCC | 135
22 | O=C(N[C@H](Cc1ccccc1F)C(=O)O)OCC1c2ccccc2-c2ccccc21 | 145
23 | OC(c1ccccc1)P(c1ccccc1)c1ccccc1 (centres undefined) | 157
24 | C1CCC(CCCCCC2CCCCC2)CC1 | -13.6
25 | COC(=O)C(C)(C)C1=CCC2(C)C(CCC3C4CCC(O)C4(C)CCC32)C1 (centres undefined) | 150

Row | Structure (SMILES) | melting point [°C]
26 | CCOC(=O)/C(=N\Nc1cc(Cl)ccc1Cl)C(=O)C(F)(F)F | 146
27 | N[C@H](C(=O)O)C1CCCCC1 | 256
28 | O=C(O)[C@H]1CCCCN1C(=O)OCC1c2ccccc2-c2ccccc21 | 149 to 153
29 | Cc1ccc(O)c(Cl)c1C | 27
30 | O=C(CCl)Nc1cccc(C(F)(F)F)c1 | 62.5 to 64
31 | CS(=O)(=O)c1ccc(Cl)cc1 | 97
32 | COc1ccccc1-c1ccc(/C=C2\N=C(c3ccccc3)OC2=O)o1 | 170
33 | CC1=NN(c2ccccc2)C(=O)C1C1C(=O)N(c2ccccc2)N=C1C (centres undefined) | 355
34 | O=[N+]([O-])c1cc([N+](=O)[O-])c(Cl)c(C(F)(F)F)c1 | 63
35 | COc1ccc(C(C)NCC(OC)OC)cc1O (centres undefined) | 88
36 | C=CC(=O)OC1CC2CCC1(C)C2(C)C (centres undefined) | 97
37 | CC(=O)Oc1nn(-c2ccccc2)cc1Br | 82 to 85
38 | COc1ccccc1N/N=C(/C#N)c1nc2ccccc2c(=O)[nH]1 | 255
39 | O=C(c1cccc2ccccc12)C(Br)c1ccccc1 (centres undefined) | 64
40 | FC(F)(F)C(I)(C(F)(F)F)C(F)(F)F | 60
41 | Cc1ccc(Br)cc1[N+](=O)[O-] | 47
42 | Cn1cc(Br)c(CCl)n1 | 76.5 to 78.5
43 | CC12CCC(=O)C=C1CCC1C2CCC2(C)C1CCC2(O)C(=O)CO (centres undefined) | 215
44 | CCCCOc1ccc(NC(=O)C(F)(F)C(F)(F)C(F)(F)C(F)(F)C(F)(F)C(F)(F)C(F)(F)C(F)(F)F)cc1 | 136 to 138
45 | N#CC1=C(C#N)C(=O)C(NCc2ccccc2)=C(Cl)C1=O | 232 to 234
46 | O=P(O)(O)C(Cl)(Cl)P(=O)(O)O | 250
47 | Cc1ccccc1N1CSc2nnc(-c3cccc([N+](=O)[O-])c3)n2C1 | 239 to 240
48 | CC(=O)CCc1cc2c(c([N+](=O)[O-])c1)CCC(C)N2C(=O)c1ccc([N+](=O)[O-])cc1 (centres undefined) | 115
49 | Nc1cc(N)nc(N)n1 | 250
50 | CC(C)(C)C(=O)OCC(=O)C1(O)CCC2C3CCC4=CC(=O)C=CC4(C)C3C(O)CC21C (centres undefined) | 233

Row | Structure (SMILES) | melting point [°C]
51 | O=[N+]([O-])c1c(Cl)cc(Cl)cc1C(Cl)Cl | 45
52 | O=[N+]([O-])c1ccc2c(c1)=[N+]([O-])C1(CCCC1)[N+]=2[O-] | 148 to 150
53 | CCCc1nc(O)n(-c2ccccc2)n1 | 146
54 | O=C(O)COC(=O)Cc1ccccc1Nc1c(Cl)cccc1Cl | 149
55 | O=S(=O)(Cl)c1ccc(-c2ccc(Cl)cc2)cc1 | 109 to 110
56 | Cc1ccc(C=C(Oc2ccccc2)c2nc3ccccc3s2)cc1 | 161 to 165
57 | CN(C)c1ccc(C=Cc2nc3ccccc3s2)cc1 | 210
58 | Cc1c(C(=O)O)nnn1Cc1ccccc1 | 170 to 171
59 | OCCNCCNCCO | 97.5
60 | CCC1COC(Cn2cncn2)(c2ccc(Cl)cc2Cl)O1 (centres undefined) | 84
61 | CN(CC(=O)O)N=O | 66.5
62 | NC(=S)CSc1ccccc1 | 88 to 91
63 | O=C1c2nonc2CCC1Br (centres undefined) | 65 to 68
64 | O=C(Cl)c1csc(-c2cccc(Cl)c2Cl)n1 | 108 to 111
65 | c1cnc2c(c1)ccc1ncccc12 | 79
66 | CCOOCC | -70
67 | CCOC(=O)C1=C(C)NC(C)=C(C(=O)OCC)C1c1ccc2c(c1)OCO2 | 135
68 | CC(=O)Nc1ccc(S(=O)(=O)Cl)cc1Cl | 143 to 145
69 | O=C(O)c1ccc(Cc2ccc(C(=O)O)cc2)cc1 | 346 to 350
70 | CC1(C)C2CCC1(C)C(C(=O)O)C2CC(O)c1ccccc1 (centres undefined) | 119
71 | NN=C1c2ccccc2C(=O)C1C(=O)C(c1ccccc1)c1ccccc1 (centres undefined) | 241 to 243
72 | CC1(C2CCC3C4CCC5CC(O)CCC5(C)C4CCC32C)OCCO1 (centres undefined) | 174
73 | CCC1CCc2ccccc2C1 (centres undefined) | -42.8
74 | N#CCc1cc(Cl)ccc1[N+](=O)[O-] | 87
75 | O=C(O)Cc1ccc(I)cc1 | 138

Row | Structure (SMILES) | melting point [°C]
76 | CC12C=CCC1C1CCC3CC(O)CCC3(C)C1CC2 (centres undefined) | 143
77 | Cc1ccc(C(C)C)c(C)c1 | -82
78 | COc1cc(C(=O)O)c(OC)c([N+](=O)[O-])c1 | 180 to 184
79 | CSc1nc2[nH]c(=S)n(-c3ccccc3C(=O)O)c(=O)c2n1C | 284
80 | CCCCC(C)C(C)C (centres undefined) | -116
81 | O=C(O)Cc1ccc(Cl)cc1Cl | 129
82 | C=CCOc1cccc(O)c1C(C)=O | 45.5 to 46.5
83 | ON=C1CCCCCCC1 | 37
84 | COc1ccccc1NC(C)=O | 87.5
85 | NCCNCCNCCN | -35
86 | OCC1OC(OCC2OC(O)(CO)C(O)C2O)C(O)C(O)C1O (centres undefined) | 125 to 128
87 | Cc1ccc(C2C(C#N)=C(N)Oc3c2c(C(F)(F)F)nn3-c2ccccc2)cc1 (centres undefined) | 205
88 | CC1=C2C3OC(=O)C(C)C3CCC2(C)C=CC1=O (centres undefined) | 175
89 | CCOC(=O)C(C)(C)C1(O)CCC2(C)C(CCC3C2CCC2(C)C(OCc4ccccc4)CCC32)C1 (centres undefined) | 147
90 | CC1CCCC(=O)C1=O (centres undefined) | 58
91 | CC(C)(C)OC(=O)C=P(c1ccccc1)(c1ccccc1)c1ccccc1 | 146 to 151
92 | CC(C)CSCC(C)C | -106
93 | O=C(O)c1cc2sccc2s1 | 222
94 | CC(=O)Oc1ccc(N=C2C=CC(=O)C=C2)cc1 | 111 to 116
95 | O=Cc1c(F)cccc1Cl | 37
96 | N#CC1=C(N)N2C(=C(C#N)C1c1ccc(Cl)cc1)Sc1ccccc12 (centres undefined) | 209
97 | O=C(O)C(O)C(=O)O | 157
98 | c1ccc(O[Si](Oc2ccccc2)(Oc2ccccc2)Oc2ccccc2)cc1 | 49
99 | COc1cc(Br)cc(C=O)c1O | 129 to 131
100 | CCCCCCCCCCCCCCCCCC(=O)OCCOCCOCCOCCO | 40

Row | Structure (SMILES) | melting point [°C]
101 | O=C(CCl)Nc1ccc(F)c(Cl)c1 | 96 to 98
102 | Cc1nc(-c2cccc(N)c2)cs1 | 101 to 103
103 | CCOC(=O)c1c(NS(=O)(=O)c2ccc(Cl)cc2)nn(-c2ccc([N+](=O)[O-])cc2)c1N | 200
104 | Oc1c2cccc1Cc1cccc(c1O)Cc1cccc(c1O)Cc1cccc(c1O)Cc1cccc(c1O)Cc1cccc(c1O)C2 | 417 to 418
105 | Oc1c(Cl)c(Cl)cc(Cl)c1Cl | 115
106 | CSc1nc2nc(C)cc(C)n2n1 | 156 to 157
107 | CCCC1Nn2c(nnc2-c2cccc([N+](=O)[O-])c2)S1 (centres undefined) | 129
108 | Cc1nc2ccccn2c1C=O | 117 to 118
109 | O=C(N=Nc1ccccc1)NNc1ccccc1 | 153 to 157
110 | O=S(=O)(c1ccccc1)C1CC1(Cl)Cl (centres undefined) | 83 to 88
111 | O=C(O)c1cnn(-c2ccc([N+](=O)[O-])cc2)c1C(F)(F)F | 202 to 204
112 | CN1CCN(C2=C(Cl)C(=O)c3ccccc3C2=O)CC1 | 120
113 | Cc1cccc(Nc2ccccc2)c1 | 30
114 | CCOC(=O)C1=C(NC(=O)CCl)Oc2c(c(=O)oc3ccccc23)C1c1ccc(Br)cc1 (centres undefined) | 158
115 | CCCCCC(=O)CC(C)=O | -18
116 | COc1ccc(-c2csc(/C(C#N)=C\c3cccnc3)n2)cc1 | 235
117 | O=C(CCl)N(c1ccccc1)C1CCCCC1 | 103 to 105
118 | O=Cc1c[nH]nc1-c1ccc(C(F)(F)F)cc1 | 113 to 115
119 | O=C(O)c1ccccc1CSc1ccccc1 | 109 to 113
120 | O=C1C=C(NCCCc2ccccc2)C(=O)c2ccccc21 | 116
121 | Nc1nc(N)nc(Cl)n1 | 320
122 | O=C(O)CCSCSCCC(=O)O | 138 to 140
123 | CNc1ccc2cc3ccc4c(c3nc2c1CO)COCN4 | 105
124 | O=C(O)c1ccc(Oc2ccccc2)nc1 | 164
